According to PubChem BioAssay AID1406 (The Scripps Research Institute Molecular Screening Center, 2008):
Activity calls are given as the source filed them.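 Rule for the calls: active = STAT1 reporter activators whose half-maximal activating concentration EC50 is 10 µM or lower; inactive = EC50 above 10 µM or no activation.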

Tested on: NIH 3T3 STAT1 luciferase reporter, luminescence
Assay: STAT1 reporter activators, potency curves, dose response, counter-screen for STAT3 activator project, cell-based, NIH 3T3, luciferase luminescence (AID 1406)
[1] = cells stimulated with IFN-gamma at EC80

| SMILES | EC50 [1] | EC50 |
| --- | --- | --- |
| O=C(CCCSc1nc2ccccc2s1)NCc1ccco1 | > 55.7 µM (inactive) |  |
| CC(C)CC(=O)NC(=S)Nc1nc(-c2ccccc2)cs1 | > 55.7 µM (inactive) |  |
| CN(Cc1ccccc1)Cc1c[nH]c2ccccc12 | > 55.7 µM (inactive) |  |
| COc1cccc(-c2nc(N3CCCCC3C)c3ccccc3n2)c1O (configuration not stated) | > 55.7 µM (inactive) |  |
| Cc1nc2ccccc2cc1O | > 55.7 µM (inactive) |  |
| COc1ccc(-c2nnc(Nc3nc4c(OC)cccc4s3)o2)cc1 | > 55.7 µM (inactive) |  |
| O=C(COc1ccccc1Cl)Nc1cc(Cl)ccc1O | > 55.7 µM (inactive) |  |
| CCc1cc2c(NCCC(=O)O)nc(C)nc2s1 | > 55.7 µM (inactive) |  |
| Cc1cccc(NC(=O)c2cc([N+](=O)[O-])ccc2Cl)c1O | > 55.7 µM (inactive) |  |
| Cc1nonc1CC(=O)N1CCc2c([nH]c3ccccc23)C1c1ccccc1F (configuration not stated) | > 55.7 µM (inactive) |  |
| c1ccc2c(CNC3CCCCCC3)c[nH]c2c1 |  | > 55.7 µM (inactive) |
| COc1ccc(NC(=O)N2CCn3c2nc2ccccc23)cc1 | > 55.7 µM (inactive) |  |
| COc1ccc(C)cc1NC(=O)c1[nH]c(C)c(C(C)=O)c1C | > 55.7 µM (inactive) |  |
| O=c1c2ccccc2ncn1Cc1ccco1 | > 55.7 µM (inactive) |  |
| COc1ccccc1C(=O)NNC(=O)c1ccc(NC(=O)C(C)C)cc1 | > 55.7 µM (inactive) |  |
| Cc1[nH]n(-c2ccccc2)c(=O)c1/C=C1/C=c2ccccc2=N1 | > 55.7 µM (inactive) |  |
| CCn1c(C(=O)Nc2ccsc2C(=O)OC)cc2sc(Cl)cc21 | > 55.7 µM (inactive) |  |
